Reference: patent US20260209223A1, “FGFR3 INHIBITOR COMPOUNDS” (TYRA BIOSCIENCES, INC., priority 2022, published 2026)

Key:
Ba/F3 ETV5-FGFR4 = target: T1, Ba/F3 ETV5-FGFR4 (Homo sapiens, UniProt P22455); assay: Ba/F3 cell viability assay (CellTiter-Glo 2.0); assay type: cell-based; settings: Ba/F3 cell data, ETV5-FGFR4 fusion, 48 hours
T1 construct: host or cells: Ba/F3; the other entry of the earlier key: ETV5 (P41161, ETS translocation variant 5)
Excerpt: Experimental Purpose: Recombinant kinase fusions are transduced into parental Ba/F3, which becomes dependent upon this constitutive kinase activity for IL3-independent survival. Inhibition of kinase activity leads to cell death, which is monitored using CellTiter-Glo® 2.0 (Promega) which measures intracellular ATP concentration that in turn serves as a marker for viability. BCR-FGFR1 Ba/F3, BCR-FGFR2 and FGFR3-BAIAP2L1 Ba/F3 were obtained from Advanced Cellular Dynamics (Seattle, WA). ETV6-FGFR4 was obtained from Kyinno (Waltham, MA).
Cell Viability Assay Procedure: Cell Titer-Glo® 2.0 Luminescent cell viability assay reagent was purchased from Promega (Madison, WI). Ba/F3 cell lines were cultured in RPMI1640 media supplemented with 10% fetal bovine serum. Cultures were maintained at 37° C. in a humidified atmosphere of 5% CO2 and 95% air.
Cells were plated in 96-well clear bottom/white plates (Corning #3903) at 10,000 cells/well in 100 μl of media, incubated overnight. The next day, test compound DMSO stock solutions were made at 10 mM and 2 μM final concentration. Compounds were then added to cells in a 9-dose, 10-fold dilution series starting at 30 μM with an HP 300e Digital Dispenser (each dose was applied in triplicate). DMSO was backfilled to each well up to 301 nL total volume of test compound+DMSO, and a total of 301 nL DMSO was added to a control/no test compound well in triplicate. The cells in cell culture plates were incubated with the compounds at 37° C. and 5% CO2 for 48 hours. Then 50 μl of Cell Titer Glo 2.0 reagent was added to each well of the cell culture plates. The contents were covered from light and mixed on an orbital shaker at room temperature for 10 min. Luminescence was recorded by a Synergy H1 Microplate Reader (Biotek, Winooski, VT). Cells were assessed as a percentage of DMSO only treated control cells. Curves were plotted and IC50 values were calculated using the GraphPad Prism 8 program based on a sigmoidal dose-response equation (4 parameter).

Ba/F3 BCR-FGFR2 = target: T2, Ba/F3 BCR-FGFR2 (Homo sapiens, UniProt P21802); assay: Ba/F3 cell viability assay (CellTiter-Glo 2.0); assay type: cell-based; settings: Ba/F3 cell data, BCR-FGFR2 fusion, 48 hours
T2 construct: BCR (fusion partner); host or cells: Ba/F3; the other entry of the earlier key: BCR (P11274, Breakpoint cluster region protein)
T2 sequence (P21802 481-770 limits assumed): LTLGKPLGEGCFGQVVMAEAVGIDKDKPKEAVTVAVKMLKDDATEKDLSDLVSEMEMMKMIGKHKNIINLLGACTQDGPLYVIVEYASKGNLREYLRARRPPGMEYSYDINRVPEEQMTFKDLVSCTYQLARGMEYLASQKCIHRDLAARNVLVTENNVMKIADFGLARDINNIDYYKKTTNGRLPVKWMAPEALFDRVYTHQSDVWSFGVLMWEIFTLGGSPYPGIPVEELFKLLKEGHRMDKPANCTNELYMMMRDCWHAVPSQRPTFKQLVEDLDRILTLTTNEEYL

KG-1 = assay: Cancer cell line cell viability assay (CellTiter-Glo 2.0); assay type: cell-based; settings: Homo sapiens; KG-1 (FGFR1-fusion) cell viability, 72 hours
Excerpt: (§1) Experimental Purpose: To detect the change of intracellular ATP by Cell Titer-Glo® and to evaluate the inhibitory effect of the compounds on cancer cell lines by determining the in vitro IC50 value of the compounds.
(§2) Cell Titer-Glo® 2.0 Luminescent cell viability assay reagent was purchased from Promega (Madison, WI). RT112/84 and KG-1 cell lines were purchased from American Type Culture Collection (Manassas, VA). UM-UC-14 cell line was purchased from Sigma (St. Louis, MO). RT112/84, UM-UC-14, and KG-1 cells were cultured in RPMI1640 media supplemented with 10% fetal bovine serum. Cultures were maintained at 37° C. in a humidified atmosphere of 5% CO2 and 95% air.
(§3) Cell Viability Assay Procedure: Cells were plated in 96-well clear bottom/white plates (Corning #3903) at 10,000 cells/well in 100 μl of media, incubated overnight. The next day, test compound DMSO stock solutions were made at 10 mM and 2 μM final concentration.
(§4) Compounds were then added to cells in a 9-dose, […] dilution series starting at 30 μM with an HP 300e Digital Dispenser (each dose was applied in triplicate). DMSO was backfilled to each well up to 301 nL total volume of test compound+DMSO, and a total of 301 nL DMSO was added to a control/no test compound well in triplicate. The cells in cell culture plates were incubated with the compounds at 37° C. and 5% CO2 for 72 hours. Then 50 μl of Cell Titer Glo 2.0 reagent was added to each well of the cell culture plates. The contents were covered from light and mixed on an orbital shaker at room temperature for 10 min.
(§5) Luminescence was recorded by a Synergy H1 Microplate Reader (Biotek, Winooski, VT). Cells were assessed as a percentage of DMSO only treated control cells. Curves were plotted and IC50 values were calculated using the GraphPad Prism 8 program based on a sigmoidal dose-response equation (4 parameter).

RT112/84 = assay: as above; assay type: cell-based; settings: Homo sapiens; RT112/84 (FGFR3-fusion) cell viability, 72 hours
Excerpt: as §1, §2, §3, §4, §5

Ba/F3 BCR-FGFR1 = target: T3, Ba/F3 BCR-FGFR1 (Homo sapiens, UniProt P11362); assay: Ba/F3 cell viability assay (CellTiter-Glo 2.0); assay type: cell-based; settings: Ba/F3 cell data, BCR-FGFR1 fusion, 48 hours
T3 construct: BCR (fusion partner); host or cells: Ba/F3; the other entry of the earlier key: BCR (P11274, Breakpoint cluster region protein)
T3 sequence (P11362 478-767 limits assumed): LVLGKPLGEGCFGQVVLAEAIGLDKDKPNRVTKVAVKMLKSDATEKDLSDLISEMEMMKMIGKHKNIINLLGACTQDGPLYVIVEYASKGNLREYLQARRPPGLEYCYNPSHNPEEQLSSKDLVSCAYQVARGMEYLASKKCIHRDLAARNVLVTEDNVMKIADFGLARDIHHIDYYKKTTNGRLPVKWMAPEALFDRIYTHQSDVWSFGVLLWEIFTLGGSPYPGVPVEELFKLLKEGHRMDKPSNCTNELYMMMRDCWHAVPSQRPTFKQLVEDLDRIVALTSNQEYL

KatoIIII = assay: Cancer cell line cell viability assay (CellTiter-Glo 2.0); assay type: cell-based; settings: 72 hours
Ba/F3 FGFR3-BAIAP2L1 = target: T4, Ba/F3 FGFR3-BAIAP2L1 (Homo sapiens, UniProt P22607); assay: Ba/F3 cell viability assay (CellTiter-Glo 2.0); assay type: cell-based; settings: Ba/F3 cell data, FGFR3-BAIAP2L1 fusion, 48 hours
T4 construct: BAIAP2L1 (fusion partner, Q9UHR4 if human); host or cells: Ba/F3; the other entry of the earlier key: BAIAP2L1 (Q9UHR4, BAR/IMD domain-containing adapter protein 2-like 1)
T4 sequence (P22607 397-758 limits assumed): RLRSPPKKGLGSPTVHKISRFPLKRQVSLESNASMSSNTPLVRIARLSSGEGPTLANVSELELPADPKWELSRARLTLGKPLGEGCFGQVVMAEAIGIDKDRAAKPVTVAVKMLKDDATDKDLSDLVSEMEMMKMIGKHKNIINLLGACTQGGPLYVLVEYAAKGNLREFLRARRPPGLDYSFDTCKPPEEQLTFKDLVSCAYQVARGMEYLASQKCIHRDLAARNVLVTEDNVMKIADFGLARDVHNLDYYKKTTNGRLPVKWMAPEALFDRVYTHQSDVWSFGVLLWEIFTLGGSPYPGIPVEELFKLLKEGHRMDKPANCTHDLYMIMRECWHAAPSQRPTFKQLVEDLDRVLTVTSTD

FGFR3 (V555M) = target: T5, FGFR3 (V555M) (Homo sapiens, UniProt P22607, V555M); assay: Kinase binding assay (Kd), kinase-tagged T7 phage, affinity beads, qPCR; settings: in vitro binding assay, 11-point 3-fold dilution series
T5 construct: made in house; host or cells: E. coli (BL21-derived) infected with T7 phage
T5 sequence (P22607 23-806 V555M): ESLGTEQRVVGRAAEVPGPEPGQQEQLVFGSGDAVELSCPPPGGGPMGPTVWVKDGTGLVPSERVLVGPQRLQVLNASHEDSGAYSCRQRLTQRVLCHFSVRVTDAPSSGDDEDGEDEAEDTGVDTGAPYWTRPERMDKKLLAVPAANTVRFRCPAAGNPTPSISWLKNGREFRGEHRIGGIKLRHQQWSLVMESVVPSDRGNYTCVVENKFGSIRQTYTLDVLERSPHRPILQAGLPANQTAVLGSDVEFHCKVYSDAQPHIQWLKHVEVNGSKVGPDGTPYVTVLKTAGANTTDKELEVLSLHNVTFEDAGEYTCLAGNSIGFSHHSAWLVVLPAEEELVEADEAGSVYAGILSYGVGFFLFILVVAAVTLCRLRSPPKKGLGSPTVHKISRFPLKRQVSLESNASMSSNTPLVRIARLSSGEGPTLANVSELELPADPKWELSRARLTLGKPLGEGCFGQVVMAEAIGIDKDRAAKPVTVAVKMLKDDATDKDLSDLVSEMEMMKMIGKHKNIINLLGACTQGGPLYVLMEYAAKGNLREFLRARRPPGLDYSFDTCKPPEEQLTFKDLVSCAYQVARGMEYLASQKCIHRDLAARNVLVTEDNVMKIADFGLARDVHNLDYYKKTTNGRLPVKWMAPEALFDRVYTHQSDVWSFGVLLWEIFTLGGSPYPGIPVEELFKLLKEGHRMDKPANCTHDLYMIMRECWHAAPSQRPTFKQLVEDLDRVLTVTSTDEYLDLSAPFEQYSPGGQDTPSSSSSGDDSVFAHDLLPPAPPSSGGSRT
Description: (§6) Kinase-tagged T7 phage strains were prepared in an E. coli host derived from the BL21 strain. E. coli were grown to log-phase and infected with T7 phage and incubated with shaking at 32° C. until lysis. The lysates were centrifuged and filtered to remove cell debris. Streptavidin-coated magnetic beads were treated with biotinylated small molecule ligands for 30 minutes at room temperature to generate affinity resins for kinase assays. The liganded beads were blocked with excess biotin and washed with blocking buffer SeaBlock (Pierce), 1% BSA, 0.05% Tween 20, 1 mM DTT to remove unbound ligand and to reduce non-specific binding. Binding reactions were assembled by combining kinases, liganded affinity beads, and test compounds in 1× binding buffer (20% SeaBlock, 0.17×PBS, 0.05% Tween 20, 6 mM DTT).
(§7) Test compounds were prepared as 111× stocks in 100% DMSO. Kds were determined using an 11-point 3-fold compound dilution series with three DMSO control points. All compounds for Kd measurements are distributed by acoustic transfer (non-contact dispensing) in 100% DMSO. The compounds were then diluted directly into the assays such that the final concentration of DMSO was 0.9%. All reactions performed in polypropylene 384-well plate. Each was a final volume of 0.02 ml. The assay plates were incubated at room temperature with shaking for 1 hour and the affinity beads were washed with wash buffer (1×PBS, 0.05% Tween 20). The beads were then re-suspended in elution buffer (1×PBS, 0.05% Tween 20, 0.5 μM non-biotinylated affinity ligand) and incubated at room temperature with shaking for 30 minutes. The kinase concentration in the eluates was measured by qPCR.
(§8) Binding constants were calculated with a standard dose-response curve using the Hill equation: […]
(§9) The Hill Slope was set to −1. Curves were fitted using a non-linear least square fit with the Levenberg-Marquardt algorithm.

FGFR3 = target: T6, FGFR3 (Homo sapiens, UniProt P22607); assay: as above; settings: in vitro binding assay, 11-point 3-fold dilution series
T6 construct: made in house; host or cells: E. coli (BL21-derived) infected with T7 phage
T6 sequence (P22607 23-806): as the sequence (P22607 23-806 V555M) above, with M533V counted along it
Description: as §6, §7, §8, §9

FGFR2 = target: T7, FGFR2 (Homo sapiens, UniProt P21802); assay: as above; settings: in vitro binding assay, 11-point 3-fold dilution series
T7 construct: made in house; host or cells: E. coli (BL21-derived) infected with T7 phage
T7 sequence (P21802 22-821): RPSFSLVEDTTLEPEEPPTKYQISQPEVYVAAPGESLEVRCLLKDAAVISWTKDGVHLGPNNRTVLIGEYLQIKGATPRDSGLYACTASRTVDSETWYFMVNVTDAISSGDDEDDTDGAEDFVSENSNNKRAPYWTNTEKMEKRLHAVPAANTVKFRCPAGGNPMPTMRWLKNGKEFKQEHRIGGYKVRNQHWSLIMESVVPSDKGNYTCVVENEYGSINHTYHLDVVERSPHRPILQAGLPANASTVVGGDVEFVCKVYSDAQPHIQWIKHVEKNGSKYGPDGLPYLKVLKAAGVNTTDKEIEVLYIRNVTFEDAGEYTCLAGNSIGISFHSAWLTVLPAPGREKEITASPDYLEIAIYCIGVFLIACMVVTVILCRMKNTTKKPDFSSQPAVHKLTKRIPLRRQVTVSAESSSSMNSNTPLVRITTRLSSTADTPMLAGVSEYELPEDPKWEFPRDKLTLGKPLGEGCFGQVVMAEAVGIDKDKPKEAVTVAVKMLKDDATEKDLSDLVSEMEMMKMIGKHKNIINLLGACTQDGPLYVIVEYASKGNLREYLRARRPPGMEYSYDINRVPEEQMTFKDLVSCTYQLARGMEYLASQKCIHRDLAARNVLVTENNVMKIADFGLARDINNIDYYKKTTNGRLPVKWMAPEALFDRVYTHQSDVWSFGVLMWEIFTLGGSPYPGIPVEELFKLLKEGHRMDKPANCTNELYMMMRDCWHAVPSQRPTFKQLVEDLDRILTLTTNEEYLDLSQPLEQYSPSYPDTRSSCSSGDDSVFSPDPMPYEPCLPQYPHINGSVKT
Description: as §6, §7, §8, §9

FGFR1 = target: T8, FGFR1 (Homo sapiens, UniProt P11362); assay: as above; settings: in vitro binding assay, 11-point 3-fold dilution series
T8 construct: made in house; host or cells: E. coli (BL21-derived) infected with T7 phage
T8 sequence (P11362 22-822): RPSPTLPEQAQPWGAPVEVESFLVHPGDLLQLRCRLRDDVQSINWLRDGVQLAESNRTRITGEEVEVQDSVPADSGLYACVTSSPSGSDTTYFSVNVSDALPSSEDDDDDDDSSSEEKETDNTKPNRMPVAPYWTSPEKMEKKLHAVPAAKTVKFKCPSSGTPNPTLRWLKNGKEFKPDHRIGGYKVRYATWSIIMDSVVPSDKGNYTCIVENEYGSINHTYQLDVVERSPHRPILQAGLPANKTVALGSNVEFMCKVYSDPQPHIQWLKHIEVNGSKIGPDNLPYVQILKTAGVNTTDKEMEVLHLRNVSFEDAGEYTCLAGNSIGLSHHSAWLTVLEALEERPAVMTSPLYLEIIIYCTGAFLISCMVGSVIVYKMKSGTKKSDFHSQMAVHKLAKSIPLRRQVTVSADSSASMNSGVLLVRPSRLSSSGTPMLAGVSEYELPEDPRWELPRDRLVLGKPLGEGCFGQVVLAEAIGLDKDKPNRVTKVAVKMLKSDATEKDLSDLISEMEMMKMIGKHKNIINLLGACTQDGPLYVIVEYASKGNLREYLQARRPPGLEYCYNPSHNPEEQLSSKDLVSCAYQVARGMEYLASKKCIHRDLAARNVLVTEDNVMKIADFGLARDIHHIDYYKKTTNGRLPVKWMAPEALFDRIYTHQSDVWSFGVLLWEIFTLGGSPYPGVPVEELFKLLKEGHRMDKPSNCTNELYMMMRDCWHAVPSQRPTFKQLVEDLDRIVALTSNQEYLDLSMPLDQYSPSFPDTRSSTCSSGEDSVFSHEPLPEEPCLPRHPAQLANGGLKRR
Description: as §6, §7, §8, §9

FGFR4 = target: T9, FGFR4 (Homo sapiens, UniProt P22455); assay: as above; settings: in vitro binding assay, 11-point 3-fold dilution series
T9 construct: made in house; host or cells: E. coli (BL21-derived) infected with T7 phage
T9 sequence (P22455 22-802): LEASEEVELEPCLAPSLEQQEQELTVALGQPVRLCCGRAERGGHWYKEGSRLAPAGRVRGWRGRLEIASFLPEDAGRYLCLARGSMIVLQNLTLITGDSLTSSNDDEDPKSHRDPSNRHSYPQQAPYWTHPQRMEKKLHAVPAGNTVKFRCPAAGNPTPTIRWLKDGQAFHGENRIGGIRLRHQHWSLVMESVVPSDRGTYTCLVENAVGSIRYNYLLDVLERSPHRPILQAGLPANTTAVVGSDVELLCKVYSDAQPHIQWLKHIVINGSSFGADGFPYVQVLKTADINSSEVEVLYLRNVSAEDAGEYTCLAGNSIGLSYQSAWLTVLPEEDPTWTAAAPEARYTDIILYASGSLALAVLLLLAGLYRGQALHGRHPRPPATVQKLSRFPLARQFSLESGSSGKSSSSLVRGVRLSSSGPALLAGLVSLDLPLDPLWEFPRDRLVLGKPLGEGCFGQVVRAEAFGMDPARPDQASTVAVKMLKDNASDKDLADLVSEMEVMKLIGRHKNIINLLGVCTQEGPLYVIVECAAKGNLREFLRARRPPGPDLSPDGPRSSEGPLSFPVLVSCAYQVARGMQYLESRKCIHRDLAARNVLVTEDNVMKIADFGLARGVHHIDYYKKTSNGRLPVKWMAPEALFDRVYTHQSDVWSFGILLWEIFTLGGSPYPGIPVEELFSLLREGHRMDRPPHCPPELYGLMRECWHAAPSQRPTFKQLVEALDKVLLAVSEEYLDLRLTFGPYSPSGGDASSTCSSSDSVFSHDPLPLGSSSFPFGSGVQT
Description: as §6, §7, §8, §9

T1 sequence (P22455 467-755 limits assumed): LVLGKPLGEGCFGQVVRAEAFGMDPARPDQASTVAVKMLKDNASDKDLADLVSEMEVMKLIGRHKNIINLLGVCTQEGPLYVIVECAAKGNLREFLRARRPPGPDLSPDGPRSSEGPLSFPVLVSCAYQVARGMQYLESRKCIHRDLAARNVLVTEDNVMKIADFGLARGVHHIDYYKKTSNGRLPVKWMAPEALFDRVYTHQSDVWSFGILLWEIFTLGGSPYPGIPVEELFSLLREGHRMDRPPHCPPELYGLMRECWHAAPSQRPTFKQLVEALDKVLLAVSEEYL

SMILES	IC50 (KG-1)	IC50 (RT112/84)	IC50 (KatoIIII)	Kd (FGFR3 (V555M))	Kd (FGFR3)	Kd (FGFR2)	Kd (FGFR1)	Kd (FGFR4)	Kd (Ba/F3 ETV5-FGFR4)	Kd (Ba/F3 BCR-FGFR2)	Kd (Ba/F3 BCR-FGFR1)	Kd (Ba/F3 FGFR3-BAIAP2L1)
C=CC(=O)N1CCC2(CC1)CC(n1nnc(-c3cc(O[C@H](C)c4ccccn4)c4c(C#N)cnn4c3)c1C)C2 [Example 3, (R)-6-(1-(7-acryloyl-7-azaspiro[3.5]nonan-2-yl)-5-methyl-1H-1,2,3-triazol-4-yl)-4-(1-(pyridin-2-yl)ethoxy)pyrazolo[1,5-a]pyridine-3-carbonitrile]	0.1 to 100 nM	0.1 to 100 nM	0.1 to 100 nM	–	0.1 to 100 nM	–	0.1 to 100 nM	–	100 to 250 nM	0.1 to 100 nM	0.1 to 100 nM	0.1 to 100 nM
C=CC(=O)N1CCC2(CC1)CC(n1nnc(-c3cc(O[C@@H](CO)c4ccc(F)cn4)c4c(C#N)cnn4c3)c1C)C2 [Example 12, (R)-6-(1-(7-acryloyl-7-azaspiro[3.5]nonan-2-yl)-5-methyl-1H-1,2,3-triazol-4-yl)-4-(1-(5-fluoropyridin-2-yl)-2-hydroxyethoxy)pyrazolo[1,5-a]pyridine-3-carbonitrile]	–	–	–	250 to 1000 nM	100 to 250 nM	250 to 1000 nM	250 to 1000 nM	≥ 1000 nM	≥ 1000 nM	≥ 1000 nM	≥ 1000 nM	250 to 1000 nM
C=CC(=O)N1CC(OC)(C(=O)N2CCC(n3nnc(-c4cc(O[C@@H](CO)c5ccccn5)c5c(C#N)cnn5c4)c3C)CC2)C1 [Example 21, (R)-6-(1-(1-(1-acryloyl-3-methoxyazetidine-3-carbonyl)piperidin-4-yl)-5-methyl-1H-1,2,3-triazol-4-yl)-4-(2-hydroxy-1-(pyridin-2-yl)ethoxy)pyrazolo[1,5-a]pyridine-3-carbonitrile]	–	–	–	250 to 1000 nM	100 to 250 nM	250 to 1000 nM	≥ 1000 nM	≥ 1000 nM	≥ 1000 nM	≥ 1000 nM	≥ 1000 nM	≥ 1000 nM

Second part, led by results:

IC50 (KG-1)	IC50 (RT112/84)	IC50 (KatoIIII)	Kd (FGFR3 (V555M))	Kd (FGFR3)	Kd (FGFR2)	Kd (FGFR1)	Kd (FGFR4)	SMILES	Kd (Ba/F3 ETV5-FGFR4)	Kd (Ba/F3 BCR-FGFR2)	Kd (Ba/F3 BCR-FGFR1)	Kd (Ba/F3 FGFR3-BAIAP2L1)
≥ 1000 nM	≥ 1000 nM	≥ 1000 nM	0.1 to 100 nM	0.1 to 100 nM	0.1 to 100 nM	0.1 to 100 nM	0.1 to 100 nM	C=CC(=O)N1CC(C(=O)N2CCC(n3nnc(-c4cc(O[C@H](CO)c5ccccn5)c5c(C#N)cnn5c4)c3C)CC2)C1 (single isomer, unassigned) [Example 18]	≥ 1000 nM	≥ 1000 nM	≥ 1000 nM	250 to 1000 nM
250 to 1000 nM	100 to 250 nM	≥ 1000 nM	0.1 to 100 nM	0.1 to 100 nM	0.1 to 100 nM	0.1 to 100 nM	0.1 to 100 nM	C=CC(=O)N1CC(F)(C(=O)N2CCC(n3nnc(-c4cc(O[C@H](CO)c5ccccn5)c5c(C#N)cnn5c4)c3C)CC2)C1 (single isomer, unassigned) [Example 20]	≥ 1000 nM	≥ 1000 nM	≥ 1000 nM	0.1 to 100 nM
–	–	–	0.1 to 100 nM	0.1 to 100 nM	0.1 to 100 nM	0.1 to 100 nM	0.1 to 100 nM	C=CC(=O)N1CCC2(CC1)CC(n1ncc(-c3cc(OC(CO)c4cncc5ccccc45)c4c(C#N)cnn4c3)c1C)C2 (stereo not drawn) [Example 15, 6-(1-(7-acryloyl-7-azaspiro[3.5]nonan-2-yl)-5-methyl-1H-pyrazol-4-yl)-4-(2-hydroxy-1-(isoquinolin-4-yl)ethoxy)pyrazolo[1,5-a]pyridine-3-carbonitrile]	250 to 1000 nM	100 to 250 nM	100 to 250 nM	0.1 to 100 nM
–	–	–	0.1 to 100 nM	0.1 to 100 nM	0.1 to 100 nM	0.1 to 100 nM	0.1 to 100 nM	COC1(C(=O)N2CCC(n3nnc(-c4cc(OC(CO)c5ccccn5)c5c(C#N)cnn5c4)c3C)CC2)CN(C(=O)/C=C/CN(C)C)C1 (stereo not drawn) [Example 23, (E)-6-(1-(1-(1-(4-(dimethylamino)but-2-enoyl)-3-methoxyazetidine-3-carbonyl)piperidin-4-yl)-5-methyl-1H-1,2,3-triazol-4-yl)-4-(2-hydroxy-1-(pyridin-2-yl)ethoxy)pyrazolo[1,5-a]pyridine-3-carbonitrile]	≥ 1000 nM	≥ 1000 nM	≥ 1000 nM	250 to 1000 nM
–	–	–	0.1 to 100 nM	0.1 to 100 nM	0.1 to 100 nM	0.1 to 100 nM	0.1 to 100 nM	CCC(=O)N1CCC2(CC1)CC(n1cc(-c3cc(O[C@H](CO)c4ccc(F)cn4)c4c(C#N)cnn4c3)cn1)C2 [Example 28, (S)-4-(1-(5-fluoropyridin-2-yl)-2-hydroxyethoxy)-6-(1-(7-propionyl-7-azaspiro[3.5]nonan-2-yl)-1H-pyrazol-4-yl)pyrazolo[1,5-a]pyridine-3-carbonitrile]	100 to 250 nM	0.1 to 100 nM	100 to 250 nM	0.1 to 100 nM
